Assays:
[1] = Liver microsome metabolism assay; settings: CD1, mouse, liver microsomes
Experimental: Experimental Materials: Mixed CD1 mouse liver microsomal enzyme protein was purchased from Xenotech (#M1000), and NADPH was purchased from Abmole (#M9076).
1. To the liver microsomal enzyme reaction system, 210 μL of phosphate buffer was added, followed by 12.5 μL of liver microsomal enzyme at a concentration of 20 mg/mL. Then, 25 μL of NADPH at a concentration of 10 mM was added to the system, mixed well, and incubated in a 37° C. water bath with shaking for 10 minutes.
2. The test compound, stored at a concentration of 10 mM, was diluted to 100 μM with DMSO. Then, 2.5 μL of the diluted test compound was added to the reaction system, mixed well, and incubated in a 37° C. water bath with shaking.
3. At 0.5, 5, 10, 20, 30, and 60 minutes, 25 μL of the enzyme reaction mixture was taken and added to 125 μL of cold acetonitrile containing dexamethasone as an internal standard. The mixture was centrifuged at 4000 g for 20 minutes, and the supernatant was mixed with an equal volume of distilled water. The mixed sample was then subjected to quantitative analysis by liquid chromatography-mass spectrometry.
4. Calculation of in vitro drug metabolism half-life and drug clearance rate:
t1/2=−0.693/k. (k: the slope of the linear regression of the natural logarithm of the percentage of drug remaining versus incubation time).

[2] = Evaluation of pharmacokinetics in mice; settings: male, ICR (CD1), mouse, plasma, po, 10 mg/kg
[3] = Evaluation of pharmacokinetics in rats; assay type: in vivo; settings: male, SD, rat, plasma, 1 mg/kg, oral gavage (PO, 1 mpk)
From the text: Test Animals: 6-8 Week Old Male SD Rats
Food was restored two hours after dosing.

[4] = biological target: T1, PARP1 (Homo sapiens (Human), UniProt P09874); assay: PARP enzyme activity assay (PARP1 chemiluminescent assay kit); assay type: biochemical; settings: enzyme inhibitory activity, read-out: PARP-1 IC50
T1 sequence (P09874 whole entry): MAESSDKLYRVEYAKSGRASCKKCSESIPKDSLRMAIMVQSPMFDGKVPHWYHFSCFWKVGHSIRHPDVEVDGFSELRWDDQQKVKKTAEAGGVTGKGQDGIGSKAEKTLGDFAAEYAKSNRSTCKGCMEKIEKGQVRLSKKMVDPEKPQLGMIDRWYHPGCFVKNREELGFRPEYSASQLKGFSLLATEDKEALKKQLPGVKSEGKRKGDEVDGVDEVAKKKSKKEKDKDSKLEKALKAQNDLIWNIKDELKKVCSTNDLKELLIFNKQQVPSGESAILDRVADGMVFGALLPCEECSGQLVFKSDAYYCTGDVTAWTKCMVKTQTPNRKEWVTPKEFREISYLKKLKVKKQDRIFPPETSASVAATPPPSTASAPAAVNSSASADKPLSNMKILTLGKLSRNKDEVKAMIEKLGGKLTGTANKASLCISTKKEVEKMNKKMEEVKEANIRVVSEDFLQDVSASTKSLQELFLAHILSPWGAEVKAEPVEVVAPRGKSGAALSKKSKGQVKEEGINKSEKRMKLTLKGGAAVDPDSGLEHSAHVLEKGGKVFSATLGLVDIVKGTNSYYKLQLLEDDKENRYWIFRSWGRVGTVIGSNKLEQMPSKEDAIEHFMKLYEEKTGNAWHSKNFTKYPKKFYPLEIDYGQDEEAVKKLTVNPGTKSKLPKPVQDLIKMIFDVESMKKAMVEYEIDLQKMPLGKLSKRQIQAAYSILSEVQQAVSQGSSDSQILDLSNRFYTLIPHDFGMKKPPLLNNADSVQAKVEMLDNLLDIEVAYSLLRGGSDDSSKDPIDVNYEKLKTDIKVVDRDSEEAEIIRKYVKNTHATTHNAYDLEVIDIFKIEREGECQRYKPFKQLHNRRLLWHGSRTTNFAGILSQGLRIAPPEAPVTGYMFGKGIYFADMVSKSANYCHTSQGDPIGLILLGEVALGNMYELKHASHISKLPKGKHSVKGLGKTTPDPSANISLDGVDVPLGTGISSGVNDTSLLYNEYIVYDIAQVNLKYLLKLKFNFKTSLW
From the text: Experimental Materials: The PARP1 assay kit was purchased from BPS Bioscience, USA, specifically the 384-well chemiluminescent assay kit (Catalog No.: #80551).
Experimental Principle: PARP can catalyze the transfer of ADP-ribose residues from NAD+ to target substrates, thereby modifying proteins through ribosylation. This experiment measures PARP1 enzyme activity by detecting the poly(ADP-ribosylation) of histones by PARP1.
Preparation of Reagents and Test Compounds: The 10× assay buffer included in the kit was diluted to 1× with distilled water. The test compound (stock concentration of 10 mM) was diluted to 10 μM with a DMSO solution and then serially diluted in a 1:3 ratio. The serially diluted compounds were further diluted 10-fold with the 1× assay buffer.
Experimental Method: The procedure was carried out according to the kit's instructions:
1. The 5× histone mixture was diluted to 1× with PBS, and 25 μL was added to each well of a 384-well plate, incubating overnight at 4° C.
2. After incubation, 100 μL of PBST (0.05% Tween 20) was added to each well for washing, repeated three times. Then, 100 μL of blocking solution was added to each well and incubated at room temperature for 90 minutes.
3. After incubation, the wells were washed three times with PBST, and then 1.25 μL of 10× assay buffer, 1.25 μL of 10×PARP assay mixture, 2.5 μL of activation DNA (5×), and 7.5 μL of distilled water were added to each well.
4. […] The positive control group and the negative control group were added with 1× assay buffer containing the same concentration of DMSO.
5. Next, 10 μL of 2.5 ng/μL PARP1 enzyme was added to the test compound and positive control groups, while 10 μL of 1× assay buffer was added to the negative control group, and the mixture was incubated at room temperature for 60 minutes.
6. Streptavidin-HRP was diluted 1:50 with the blocking solution. After incubation, the plate was washed three times with PBST, and 25 μL of the diluted streptavidin-HRP solution was added to each well, incubating at room temperature for 30 minutes.
7. After incubation, the plate was washed three times with PBST, and 50 μL of the mixed substrate A and substrate B in equal volumes was added. The luminescence signal was immediately read on a Synergy HTX multi-mode reader.
(§1) 8. Data analysis was performed using GraphPad Prism 8.0 software. The inhibition rate %=100*(average luminescence signal of the positive control group−luminescence signal of the compound)/(average luminescence signal of the positive control group−average luminescence signal of the negative control group). The IC50 value was obtained by plotting the logarithm of the compound concentration against the percentage inhibition rate.

[5] = system: MDA-MB-436 breast cancer cells; assay: Cell proliferation assay, MDA-MB-436; assay type: cell-based; settings: Homo sapiens, MDA-MB-436, 168 h; proliferation, 7 days; read-out: MDA-MB-436 Cell IC50
Experimental: Experimental Materials: MDA-MB-436 or UWB1.289 cell lines were purchased from Cobioer Biosciences Co. Ltd. (Nanjing, China). The STR identification results were a complete match, and mycoplasma testing was negative. MDA-MB-436 cells were cultured in DMEM complete medium containing 10% fetal bovine serum, 1% penicillin-streptomycin, 1% insulin, and 16 μg/mL glutathione; UWB1.289 cells were cultured in RMPI1640 complete medium containing 10% fetal bovine serum and 1% penicillin-streptomycin.
1. MDA-MB-436 or UWB1.289 cells were cultured in the aforementioned medium (culture conditions: 37° C., 5.0% CO2 in air) until they reached the logarithmic growth phase. The cells were then digested with trypsin containing 0.25% EDTA, centrifuged at 1000 rpm, and the supernatant was discarded. Cell culture medium was added, and the cell suspension was adjusted to 2×10^4/mL after counting. 135 μL of the cell suspension per well was taken and cultured in a 96-well cell culture plate for 16 hours (culture conditions: 37° C., 5.0% CO2 in air).
2. The test compounds, stored at a concentration of 10 mM, were diluted 2.5 times with DMSO and then serially diluted in a 1:3 gradient (9 gradients). The gradient-diluted samples were further diluted 40 times with serum-free medium, and 15 μL of each was added to the 96-well cell culture plate. The positive control group received serum-free medium containing the same concentration of DMSO, and the negative control group received medium without cells. The cells were then cultured for an additional 7 days.
3. After the culture period, the cell culture plate was placed at room temperature for 30 minutes. Then, 100 μL of CellCounting-Lite 2.0 reagent (Vazyme, #DD1101) was added to each well, mixed thoroughly, and incubated in the dark at room temperature for 10 minutes. The luminescence signal was read using a Synergy HTX multi-mode reader.
as §1, with “4. Data” for “8. Data”, “rate (%) was calculated as 100*(average” for “rate %=100*(average”

[6] = biological target: T1, PARP1; assay: PARP1 trapping assay; assay type: biochemical; settings: read-out: Inhibitory Effect on PARP1 Trapping IC50
Experimental: [table] […] 1. A 4× enzyme reaction mixture, comprising PARP1, PARP2, and GST-Tb antibody, was prepared with the buffer and 4 μL of the enzyme reaction mixture was added to a 384-well plate. 2. A 4×PARP1 and PARP2 probe reaction mixture was prepared with the buffer and 4 μL of the probe reaction mixture was added to the 384-well plate. 3. A series of gradient-diluted compounds were prepared and 4 μL of the diluted compounds were added to the 384-well plate, and incubated at room temperature for 45 minutes. 4. After incubation, 4 μL of 4×NAD reaction mixture was added to the 384-well plate and incubated at room temperature for 10 minutes. 5. After incubation, the plate was read using a plate reader. 6. Data Analysis: The percentage inhibition rate was calculated as follows: Inhibition Rate (%)=(Reading of Compound Group−Reading of Blank Group)/(Reading of Vehicle Control Group−Reading of Blank Group).

[7] = system: human breast cancer (MDA-MB-436) cell line; assay: Mouse CDX tumor model (MDA-MB-436 subcutaneous xenograft); assay type: in vivo
Experimental: Test Objective: The efficacy of the compounds was evaluated in a subcutaneous xenograft model of human breast cancer (MDA-MB-436) cell line in mice.
(§2) Test Compounds: Olaparib, Compound 1
Experimental Animals: Female NOD SCID mice, 4-5 weeks old, purchased from Nanjing Jicui.
(§3) Housing and Management: The experimental animals were housed in SPF-grade, temperature- and humidity-controlled clean rooms, using individually ventilated cages (IVC) with no more than 5 mice per cage. Temperature/humidity was controlled within the range of (23±3)° C./40-70%. Feed and water: SPF-grade mouse feed, sterilized by cobalt-60 irradiation. Drinking water was ultrafiltered and autoclaved. Animals had free access to sterile food and water. Animal identification: ear tags.
Tumor Cell Line and Tumor Model: MDA-MB-436 cells (Nanjing Cobioer Biotechnology Co., Ltd., Cat. No: CBP60385) were cultured in vitro in DMEM complete medium containing 10% fetal bovine serum, 1% penicillin-streptomycin, 1% insulin, and 16 μg/mL glutathione (37° C., 5% CO2). When the cells met the requirements for the in vivo efficacy experiment, they were collected, counted, and prepared into a PBS cell suspension. Each mouse (5-6 weeks old NOD SCID) was inoculated subcutaneously on the right flank with 0.9×10^7 cells. Tumor volume was measured and calculated three times a week after inoculation. When the tumor volume reached approximately 200-300 mm^3, the mice were grouped for administration.
Experimental Groups: The experiment was divided into the following groups: vehicle control group; Olaparib 100 mg/kg group; Compound 1 0.1 mg/kg group; Compound 1 0.3 mg/kg group; and Compound 1 1.0 mg/kg group. All groups were administered orally by gavage once daily. […] After 28 days of administration, the tumor volume was used to calculate the tumor growth inhibition rate (TGI %), and the tumor inhibition effect was statistically analyzed using software such as Excel, etc.

[8] = system: peripheral blood reticulocytes; assay: Effect of compound on rat reticulocytes; assay type: in vivo; settings: 4 days
Experimental: Test Objective: The effect of the compound on peripheral blood reticulocytes was evaluated to determine its impact on bone marrow hematopoietic function.
as §2
as §3, with “Experimental Animals: Male Sprague Dawley rats were purchased from Beijing Charles River Laboratory Animal Technology Co., Ltd. Housing” for “Housing”, “rats” for “mice”, “rat” for “mouse”
Experimental Method: The experiment was divided into the following 5 groups: vehicle control group; Olaparib 100 mg/kg; Compound 1 0.1 mg/kg; Compound 1 0.3 mg/kg; and Compound 1 1.0 mg/kg. All treatments were administered orally by gavage once daily for 4 days. Blood samples were collected before and after treatment to measure peripheral blood reticulocyte counts.

Row | Compound | microsomal CLint at 1 µM [1] | AUC(0-inf) [2] | Cmax [2] | half-life [2] | IC50 [5] | IC50 [6] | other results
1 | CCc1cc2ncc(CN3CCN(c4ccc(C(=O)NC)nc4)CC3)cc2[nH]c1=O [AZD5305, reference compound] | 1.23 µL/min/mg | 357 µg·h/mL | 37.3 µg/mL | 8.25 h | – | – | AUC(0-inf) [3]: 5.6 µg·h/mL; Cmax [3]: 1.4 µg/mL; half-life [3]: 4.09 h
2 | Cc1c(C(F)(F)F)c(=O)[nH]c2cc(CN3CCN(c4cc5c(cn4)C(=O)NC5)CC3)cnc12 [Compound 15, 4-methyl-7-((4-(3-oxo-2,3-dihydro-1H-pyrrolo[3,4-c]pyridin-6-yl)piperazin-1-yl)methyl)-3-(trifluoromethyl)-1,5-naphthyridin-2(1H)-one] | 0.75 µL/min/mg | – | – | – | – | – | IC50 [4]: 3.48 nM
3 | CNC(=O)c1ccc(N2CCN(C(C)c3cnc4c(C)c(C(F)(F)F)c(=O)[nH]c4c3)CC2)cn1 (stereo not drawn) [Compound 24, N-methyl-5-(4-(1-(8-methyl-6-oxo-7-(trifluoromethyl)-5,6-dihydro-1,5-naphthyridin-3-yl)ethyl)piperazin-1-yl)picolinamide] | 0.4 µL/min/mg | 1100 µg·h/mL | 26.3 µg/mL | 28.7 h | 4.32 nM | – | –
4 | CNC(=O)c1ccc(N2CCN(Cc3cc4[nH]c(=O)c(C(F)(F)F)c(C)c4cn3)[C@H](C)C2)cn1 [Compound 87, (R)—N-methyl-5-(3-methyl-4-((4-methyl-2-oxo-3-(trifluoromethyl)-1,2-dihydro-1,6-naphthyridin-7-yl)methyl)piperazin-1-yl)picolinamide] | 1.01 µL/min/mg | – | – | – | 5.73 nM | 2.57 nM | –
5 | CNC(=O)c1ccc(N2CCN(Cc3cc4[nH]c(=O)c(C(F)(F)F)c(C)c4cn3)C[C@H]2C)cn1 [Compound 88, (R)—N-methyl-5-(2-methyl-4-((4-methyl-2-oxo-3-(trifluoromethyl)-1,2-dihydro-1,6-naphthyridin-7-yl)methyl)piperazin-1-yl)picolinamide] | 0.84 µL/min/mg | 1650 µg·h/mL | 38.2 µg/mL | 26.3 h | 5.75 nM | 1.55 nM | –
6 | CNC(=O)c1ccc(N2CCN([C@H](C)c3cnc4c(C)c(C(F)(F)F)c(=O)[nH]c4c3)CC2)cn1 [Compound 90, (R)—N-methyl-5-(4-(1-(8-methyl-6-oxo-7-(trifluoromethyl)-5,6-dihydro-1,5-naphthyridin-3-yl)ethyl)piperazin-1-yl)picolinamide] | 0.21 µL/min/mg | 1360 µg·h/mL | 49.9 µg/mL | 20.2 h | 7.26 nM | 4.33 nM | –
7 | CNC(=O)c1ccc(N2CCN([C@@H](C)c3cnc4c(C)c(C(F)(F)F)c(=O)[nH]c4c3)CC2)cn1 [Compound 91, (S)—N-methyl-5-(4-(1-(8-methyl-6-oxo-7-(trifluoromethyl)-5,6-dihydro-1,5-naphthyridin-3-yl)ethyl)piperazin-1-yl)picolinamide] | 0.3 µL/min/mg | – | – | – | 3.24 nM | 2.9 nM | –
8 | O=C(c1cc(Cc2n[nH]c(=O)c3ccccc23)ccc1F)N1CCN(C(=O)C2CC2)CC1 [Olaparib, reference compound] | – | – | – | – | – | – | Tumor Growth Inhibition Rate (TGI) ([7]; 100 mg/kg oral once daily, 28 days): 89%; Body weight vs vehicle control group ([7]; MDA-MB-436 model, all treatment groups): no significant difference; Reticulocyte Inhibition Rate ([8]; 100 mg/kg oral once daily): 91.6%; Effect on peripheral blood reticulocytes (in words) ([8]; 100 mg/kg, p<0.01): significantly reduced
